How the values were obtained:
[1] = system: several mammalian cell types; conditions: energy-independent manner; cited from earlier work
PCNA = assay: Immunohistochemistry of mouse tongue sections for PCNA; assay type: in vivo, mouse (C57BL/6); conditions: 4-NQO + peptide vs 4-NQO+saline; tongue regions with and without visible lesions; four mice per group
Protocol: (§1) Six-week old wild-type C57BL/6 female mice (purchased from the Jackson Laboratory) were used for this study. The mice were maintained on a normal chow (Lab-diet with constant nutrition, Lab-Diet Co, St. Louis, Mo.) and under controlled conditions with a 12 hour light/dark cycle. The mice were randomly divided into an experimental group in which mice received drinking water that contained 100 μg/ml 4-nitroquinoline 1-oxide (4-NQO) (Sigma, St. Louis, Mo.) and a control group in which mice received drinking water that contained propylene glycol (vehicle for 4-NQO). The treatment lasted for 10 weeks after which the mice received regular drinking water. […] Mouse body weights and precancerous and cancerous lesions were monitored in the oral cavities at different times for up to 15 weeks, or until signs of sickness or weight loss. […]
(§2) Immunohistochemistry. […] The sections were incubated with secondary antibodies (1:200, anti-mouse IgG from the M.O.M kit for p16; ready to use anti-rabbit IgG from the Invitrogen SuperPicture kit for Cox-2; and ready to use anti-mouse IgG from the Dako Envision™ HRP (DAB+) kit for mouse PCNA). […] Four to five representative areas of each mouse tongue section were photographed and analyzed.

[2] = system: mouse tongue tumors induced by 4-NQO; assay: 4-NQO mouse model of oral carcinogenesis: gross tongue lesion multiplicity and severity grading; assay type: in vivo, mouse (C57BL/6)
Protocol: A mouse model of oral squamous cell carcinomas or oral cancers was developed by exposing the animals to the carcinogen 4-nitroquinoline 1-oxide (4-NQO) via drinking water.
Six-week old wild-type C57BL/6 female mice (purchased from the Jackson Laboratory) were used for this study. The mice were maintained on a normal chow (Lab-diet with constant nutrition, Lab-Diet Co, St. Louis, Mo.) and under controlled conditions with a 12 hour light/dark cycle. […] Mouse body weights and precancerous and cancerous lesions were monitored in the oral cavities at different times for up to 15 weeks, or until signs of sickness or weight loss. […]
(§3) Tissue dissection, lesion grade measurement, and pathological diagnosis. […] Gross lesions were identified and photographed, and visible cancerous lesions on the tongues were counted. The multiplicity of lesions (number of lesions per mouse) was assessed with a 10× magnification. The severity of gross lesions on the tongues was quantified by a grading system that included 0 (no lesion), 1 (mild lesion), 2 (intermediate lesion), 3 (severe lesion), and 4 (most severe lesion) in a double blinded manner. […]

PTGS2 = assay: Immunohistochemistry of mouse tongue sections for PTGS2 (Cox-2); assay type: in vivo, mouse (C57BL/6); conditions: 4-NQO + peptide vs 4-NQO+saline; four mice per group
Protocol: as §1, §2

p16 = assay: Immunohistochemistry of mouse tongue sections for p16; assay type: in vivo, mouse (C57BL/6); conditions: peptide injections after 4-NQO treatment vs 4-NQO+saline; four mice per group
Protocol: as §1, §2

[3] = system: mouse tongue tumors induced by 4-NQO; assay: 4-NQO mouse model: histological diagnosis of squamous neoplasia on H&E stained tongue sections; assay type: in vivo, mouse (C57BL/6); conditions: 4-NQO 10 weeks, then peptide 2.5 mg/kg/day s.c. 2 days/week for 15 weeks; four mice per group; 75% in 4-NQO+saline; p=0.07
Protocol: as §1, §3

| Substance | penetration of the plasma membrane [1] | PCNA positive cells in tongue epithelium (PCNA) | average number of cancerous tongue lesions per mouse (multiplicity) ([2]; 4-NQO 100 μg/ml in drinking water 10 weeks, then peptide 2.5 mg/kg/day s.c. on 2 days each week for 15 weeks, 10 mice/group, p<0.05 vs 4-NQO+saline (6.5±2.9)) | percentage of less severe tongue lesions of grades 0-2 ([2]; 4-NQO 10 weeks, then peptide 2.5 mg/kg/day s.c. 2 days/week for 15 weeks, grading 0-4, p<0.05 vs 4-NQO+saline (Fisher's exact test)) [%] | PTGS2 protein levels in tongues (PTGS2) | p16 protein levels in tongue epithelium (p16) | percentage of mice that developed severe dysplasia, carcinoma in situ, and invasive carcinoma [3] [%] |
| --- | --- | --- | --- | --- | --- | --- | --- |
| 2′,6′-Dmt-D-Arg-Phe-Lys-NH2 | readily penetrates the plasma membrane |  |  |  |  |  |  |
| D-Arg-2′,6′-Dmt-Lys-Phe-NH2 |  | obvious lower numbers of PCNA positive cells | 3.3±2.2 | 100 | greatly reduced levels in PTGS2 protein | greatly limited the 4-NQO-induced decrease in p16 protein levels | 25 |

From patent publication US9895410B2, “Methods for preventing and treating oral cancers” (Cornell University, priority 2013, dated 2018)
